Here are results for 1 compound from patent US20160243051A1, “MONO DISPERSE POLYMER NANOPARTICLES, FUNCTIONALIZED NANOPARTICLES AND CONTROLLED FORMATION METHOD” (THE CURATORS OF THE UNIVERSITY OF MISSOURI, priority 2013, published 2016).

A short description of the data set: Near infrared whole body florescent imaging, IVIS in-vivo imaging system. To be noted: nude mice, 100 μl injected once, 0.15 mg/ml ICG. As to the method: Near Infrared based florescent imaging was carried out in nude mice through IVIS in-vivo imaging system. Briefly, 100 μl of samples of free ICG solution (0.15 mg/ml), PMMA-COOH (0.15 mg/ml of ICG present in nanoparticles) and Pegylated nanoparticles containing ICG (0.15 mg/ml) were injected once and their florescence were recorded at various time points as shown in FIGS. 8A-8C. […] There are three possible reasons for florescence quenching; namely, (i) degradation of free ICG physiological conditions, or (ii) rapid clearance of free ICG from the body, or (iii) a combination of both processes.

As to `CC1(C)C(/C=C/C=C/C=C/C=C2\N(CCCCS(=O)(=O)O)c3ccc4ccccc4c3C2(C)C)=[N+](CCCCS(=O)(=O)[O-])c2ccc3ccccc3c21` [free ICG, indocyanine green], the “time within which florescence diminished” value is at most 6 h and the “time within which florescence was completely reduced to almost zero” value was at most 24 h.
